# Tests used:
# Parameters in all cases: species or system AML cell lines (8); Primary HTS, single concentration about 10 uM, Cell Titer Glo viability; log10 luminescence, per cent inhibition relative to cycloheximide control
# Conditions in all cases: 72 h, relative to cycloheximide control, log10 luminescence; inhibitor
# M07e = test system: M07e
# CMK = test system: CMK
# ML-2 = test system: ML-2
# CHRF288-11 = test system: CHRF288-11
# MV4-11 = test system: MV4-11
# MOLM-13 = test system: MOLM-13
# U937 = test system: U937
# CMS = test system: CMS
Structure (SMILES),M07e %inh (M07e),CMK %inh (CMK),ML-2 %inh (ML-2),CHRF288-11 %inh (CHRF288-11),MV4-11 %inh (MV4-11),MOLM-13 %inh (MOLM-13),U937 %inh (U937),CMS %inh (CMS)
O=C1NC(=NCCc2cccs2)S/C1=C\c1ccc2ncccc2c1 [SJ000581015-1],0.2412%,2.413%,1.872%,-3.354%,1.469%,1.226%,4.783%,2.886%
Cn1cc(C2=C(N3CCOCC3)C(=O)NC2=O)c2ccccc21 [SJ000581016-1],-1.546%,-3.99%,1.058%,-0.4853%,-3.16%,-0.4077%,-0.03629%,2.558%
Cn1cc(C2=C(c3c4n(c5ccccc35)CCN(C(N)=S)C4)C(=O)NC2=O)c2ccccc21 [SJ000581017-1],14.07%,110.3%,14.21%,61.39%,52.04%,83.86%,15.09%,66.21%
Nc1c(C(=O)c2ccc(CCCN3CCOCC3)cc2)cnn1-c1ccc(F)cc1 [SJ000581018-1],0.8427%,0.7543%,1.663%,6.032%,0.41%,3.662%,1.825%,2.2%
O=C1NC(=N[C@@H](CO)Cc2ccccc2)S/C1=C\c1ccc2ncccc2c1 [SJ000581019-1],15.21%,99.34%,8.345%,42.52%,35.98%,62.37%,18.33%,8.828%
O=C1NC(=N[C@H](CO)Cc2ccccc2)S/C1=C\c1ccc2ncccc2c1 [SJ000581019-2],7.526%,5.29%,1.703%,7.52%,1.969%,1.796%,7.541%,2.2%
Nc1c(C(=O)c2cccc(OC[C@H](O)CO)c2)cnn1-c1ccc(F)cc1 [SJ000581020-1],2.292%,3.324%,2.034%,2.337%,0.9707%,0.004587%,0.3347%,0.9092%
COc1ccc(F)cc1C(=O)c1cnc(NC2CCN(S(C)(=O)=O)CC2)nc1N [SJ000581021-1],26.32%,28.45%,16.42%,14.05%,23.41%,27.57%,26.91%,25.29%
Cn1cc(C2=C(c3c4n(c5ccccc35)CCC(CN)CC4)C(=O)NC2=O)c2ccccc21 (stereo not drawn) [SJ000581022-1],8.854%,2.783%,3.751%,0.7803%,5.378%,2.979%,3.425%,0.653%
CS(=O)(=O)CCn1c(=O)c(Oc2ccc(F)cc2F)cc2cnc(NC3CCOCC3)nc21 [SJ000581023-1],1.483%,0.4611%,0.4592%,8.185%,1.997%,-0.00779%,-0.5257%,-0.4321%
Cn1c(=O)c(Oc2ccc(F)cc2F)cc2cnc(NC(CO)CO)nc21 [SJ000581024-1],1.393%,-1.172%,0.9662%,-0.0002567%,1.357%,0.3413%,3.277%,-1.976%
CC(=O)N[C@@H](Cc1ccc(OP(=O)(O)O)cc1)C(=O)N[C@H]1CCC(=O)N2CCC[C@@H](C(=O)NCc3ccccc3)N2C1=O [SJ000581025-1],-1.273%,-3.468%,0.2617%,3.231%,-4.371%,0.5747%,0.2421%,0.9205%
CNCC1CCn2c(c(C3=C(c4cn(C)c5ccccc45)C(=O)NC3=O)c3ccccc32)C1 (stereo not drawn) [SJ000581026-1],4.053%,19.67%,5.596%,5.735%,3.218%,5.409%,3.941%,2.453%
COc1cc[nH]c1/C=C1\C(=O)Nc2ccccc21 [SJ000581028-1],0.1646%,2.429%,2.572%,5.171%,72.48%,93.27%,-1.475%,-2.846%
"Cn1cc(C2=C(c3cn(CCCN)c4ccccc34)C(=O)NC2=O)c2ccccc21 [SJ000581029-1, RO 31-7549]",-0.4351%,7.447%,-0.6707%,63.26%,2.189%,8.447%,0.8505%,-0.005694%
COc1cc(F)c(F)cc1C(=O)c1cnc(NC2CCN(S(C)(=O)=O)CC2)nc1N [SJ000581030-1],10.16%,33.04%,12.87%,9.313%,13.02%,17.32%,15.86%,6.337%
Cc1ccccc1-n1ncc(C(=O)c2ccccc2)c1N [SJ000581031-1],0.1374%,-0.4181%,1.074%,-2.402%,-0.9776%,0.4251%,4.01%,-2.229%
Cn1c(=O)c(Cc2ccc(F)cc2F)cc2cnc(NC3CCOCC3)nc21 [SJ000581032-1],1.669%,3.89%,0.882%,-3.947%,0.6569%,4.514%,-0.7764%,0.5188%
Nc1c(C(=O)c2cccc(CCCN3CCOCC3)c2)cnn1-c1ccc(F)cc1 [SJ000581033-1],1.168%,-2.511%,2.815%,0.5002%,-0.6007%,-0.1425%,0.5296%,-0.1935%
O=C1NC(=NCCc2ccccc2Cl)S/C1=C\c1ccc2ncccc2c1 [SJ000581034-1],0.7717%,-2.328%,3.879%,-2.34%,-0.3328%,1.218%,0.6904%,1.664%
CSc1c(C2=C(c3cn(C)c4ccccc34)C(=O)NC2=O)c2ccccc2n1C [SJ000581035-1],31.51%,87.18%,21.47%,9.742%,31.9%,28.45%,26.62%,16.27%
CN(C)CC#Cc1cccc(C(=O)c2cnn(-c3ccc(F)cc3)c2N)c1 [SJ000581036-1],2.548%,1.135%,0.4348%,-3.732%,0.9409%,29.95%,6.781%,3.514%
Nc1c(C(=O)c2cccc(-c3cccnc3)c2)cnn1-c1ccc(F)cc1 [SJ000581038-1],5.379%,-3.194%,2.13%,-0.1911%,1.728%,1.631%,0.8257%,0.2916%
O=c1c(Oc2ccc(F)cc2F)cc2cnc(NC3CCOCC3)nc2n1C1CC1 [SJ000581039-1],4.212%,4.979%,0.3273%,6.117%,3.055%,0.2345%,-0.2909%,3.291%

# Reference: article PMC6522510 (Nature Communications, 2019)
